From patent publication US20040214784A1, “Permeable, water soluble, non-irritating prodrugs of chemotherapeutic agents with oxaalkanoic acids” (UNIVERSITY OF KENTUCKY RESEARCH FOUNDATION, priority 1999, published 2004)

Experiments:
physchem = settings: buffer, pH 7.4, Half-life of hydrolysis
[1] = Half-lives of hydrolysis of the prodrugs in human serum
[2] = Half-lives of hydrolysis of the prodrugs in phosphate buffer at pH 7.4
[3] = pH 7.4, Half-life of hydrolysis, Buffer, phosphate buffer at ph 7.4
[4] = Half-life of hydrolysis, Serum (to mono), hydrolysis to mono
[5] = pH 7.4, Half-life of hydrolysis, Buffer (to mono), phosphate buffer at ph 7.4, hydrolysis to mono

Row | half-life ([1]; Half-life of hydrolysis, Serum) [h] | half-life [2, 3] [h] | Structure (SMILES) | further results
1 |  |  | CC1(C)O[C@@H]2CC3C4CCC5=CC(=O)C=CC5(C)[C@@]4(F)[C@@H](O)CC3(C)[C@]2(C(=O)COC(=O)COCC(=O)O)O1 (stereo partly drawn) | half-life (physchem): 1 h
2 |  |  | COC(=O)COCC(=O)Oc1cc(/C=C\c2cc(OC)c(OC)c(OC)c2)ccc1OC | half-life [1]: 0.0417 h; half-life ([2]; pH 7.4): > 48 h
3 | 0.173 | 6.2 | CC(C)(C)OC(=O)COCC(=O)Nc1ccn(C2CCC(COC(=O)COCC(=O)OC(C)(C)C)O2)c(=O)n1 (stereo not drawn) | 
4 | 0.1 ± 0.00333 | 10 ± 0.5 | COC(=O)COCC(=O)OCC1CCC(n2ccc(N)nc2=O)O1 (stereo not drawn) | 
5 | 3.4 | 18 | CC(C)OC(=O)COCC(=O)Nc1ccn(C2CCC(CO)O2)c(=O)n1 (stereo not drawn) | 
6 | 5 | 16 | CC(C)(C)OC(=O)COCC(=O)Nc1ccn(C2CCC(CO)O2)c(=O)n1 (stereo not drawn) | 
7 | 0.0367 | 40 | COCCOCC(=O)OCC1CCC(n2cnc3c(=O)[nH]cnc32)O1 (stereo not drawn) | 
8 |  |  | COCCOCC(=O)OCn1cc(F)c(=O)n(COC(=O)COCCOC)c1=O | half-life [1, 4]: 0.00333 h; half-life [2, 5]: 1.47 h
9 | 0.0917 ± 0.00833 | 46 | O=C(COCCOCCO)OCC1CCC(n2cnc3c(=O)[nH]cnc32)O1 (stereo not drawn) | 
10 | 0.0167 | 22 | COCCOCCOCC(=O)OCCOCn1cnc2c(=O)[nH]c(N)nc21 | 
11 | 2 | 26 | CC[C@@]1(OC(=O)COCCOC)C(=O)OCc2c1cc1n(c2=O)Cc2cc3ccccc3nc2-1 | 
12 | 0.162 | 5.6 | CC(C)OC(=O)COCC(=O)Nc1ccn(C2CCC(COC(=O)COCC(=O)OC(C)C)O2)c(=O)n1 (stereo not drawn) | 
13 | 10 ± 1 | 3.5 ± 0.2 | COCCOCCOCC(=O)O[C@H](CN1CC[C@H]2CCCC[C@H]2[C@H]1C(=O)NC(C)(C)C)[C@H](Cc1ccccc1)NC(=O)[C@H](CC(N)=O)NC(=O)c1ccc2ccccc2n1 | 
14 | 0.02 | 30 | COCCOCCOCC(=O)OCC1CCC(n2cnc3c(=O)[nH]cnc32)O1 (stereo not drawn) | 
15 | > 48 | > 96 | COCCOCCOCC(=O)O[C@@H](C[C@H](Cc1ccccc1)NC(=O)[C@@H](NC(=O)N(C)Cc1csc(C(C)C)n1)C(C)C)[C@H](Cc1ccccc1)NC(=O)OCc1cncs1 | 
16 | 0.00833 | 9.1 | COCCOCC(=O)OCn1c(=O)[nH]cc(F)c1=O | 
17 | 0.1 | 1.47 | COCCOCC(=O)OCn1cc(F)c(=O)[nH]c1=O | 
18 | 16 ± 1 | 3.2 ± 0.5 | COCCOCC(=O)O[C@H](CN1CC[C@H]2CCCC[C@H]2[C@H]1C(=O)NC(C)(C)C)[C@H](Cc1ccccc1)NC(=O)[C@H](CC(N)=O)NC(=O)c1ccc2ccccc2n1 | 
19 | 10 | 5 | CC(C)OC(=O)COCC(=O)O[C@H](CN1CC[C@H]2CCCC[C@H]2[C@H]1C(=O)NC(C)(C)C)[C@H](Cc1ccccc1)NC(=O)[C@H](CC(N)=O)NC(=O)c1ccc2ccccc2n1 | 
20 | 0.617 | 10 | COCCOCCOCC(=O)OCC(COC(=O)COCCOCCOC)OCn1cnc2c(=O)[nH]c(N)nc21 | 

Row | half-life ([1]; Half-life of hydrolysis, Serum) [h] | half-life [2, 3] [h] | Structure (SMILES) | further results
21 | 2.4 | 5.5 | COC(=O)COCC(=O)O[C@@H](C[C@H](Cc1ccccc1)NC(=O)[C@@H](NC(=O)N(C)Cc1csc(C(C)C)n1)C(C)C)[C@H](Cc1ccccc1)NC(=O)OCc1cncs1 | 
22 |  |  | COCCOCCOCC(=O)Oc1cc(/C=C\c2cc(OC)c(OC)c(OC)c2)ccc1OC | half-life [1]: 0.0333 h; half-life ([2]; pH 7.4): 10 h
23 |  |  | COCCOCCOCC(=O)OCn1cc(F)c(=O)n(COC(=O)COCCOCCOC)c1=O | half-life [1, 4]: 0.00833 h; half-life [2, 5]: 1.47 h
24 |  |  | O=C(COCCOCCO)Nc1ccn(C2CCC(COC(=O)COCCOCCO)O2)c(=O)n1 (stereo not drawn) | half-life [1, 4]: 0.0833 ± 0.0167 h; half-life [2, 5]: 20 h
25 | 0.2 | 26 | COCCOCCOCC(=O)OCC(CO)OCn1cnc2c(=O)[nH]c(N)nc21 (stereo not drawn) | 
26 | 0.0917 | 30 | COCCOCC(=O)OCCOCn1cnc2c(=O)[nH]c(N)nc21 | 
27 | 1 | 2.2 | CC(C)c1nc(CN(C)C(=O)N[C@H](C(=O)N[C@@H](Cc2ccccc2)C[C@H](OC(=O)COCC(=O)OCCOCCN(C)C)[C@H](Cc2ccccc2)NC(=O)OCc2cncs2)C(C)C)cs1 | 
28 | 0.15 | 3.73 | COCCOCCOCC(=O)OCn1cc(F)c(=O)[nH]c1=O | 
29 |  |  | COc1ccc(/C=C\c2cc(OC)c(OC)c(OC)c2)cc1OC(=O)COCC(=O)O | half-life [1]: 0.0333 h; half-life ([2]; pH 7.4): 4 h
30 |  |  | CC[C@@]1(OC(=O)COCC(=O)OCCOCCN(C)C)C(=O)OCc2c1cc1n(c2=O)Cc2cc3ccccc3nc2-1 | half-life [1]: 0.667 h; half-life ([2]; pH 7.4): 3 h
31 |  |  | CC[C@@]1(OC(=O)COCCOCCOC)C(=O)OCc2c1cc1n(c2=O)Cc2cc3ccccc3nc2-1 | half-life [1]: 2 h; half-life ([2]; pH 7.4): 25 h
32 | 24 | 96 | CC(C)c1nc(CN(C)C(=O)N[C@H](C(=O)N[C@@H](Cc2ccccc2)C[C@H](OC(=O)COCCOCCO)[C@H](Cc2ccccc2)NC(=O)OCc2cncs2)C(C)C)cs1 | 
33 |  |  | CC[C@@]1(OC(=O)COCCOCCO)C(=O)OCc2c1cc1n(c2=O)Cc2cc3ccccc3nc2-1 | half-life [1]: 1.9 h; half-life ([2]; pH 7.4): 30 h
34 | 0.583 ± 0.0833 | 14 ± 1 | COCCOCCOCC(=O)Nc1ccn(C2CCC(COC(=O)COCCOCCOC)O2)c(=O)n1 (stereo not drawn) | 
35 | 0.0667 ± 0.00833 | 9.4 ± 0.1 | O=C(O)COCC(=O)OCC1CCC(n2cnc3c(=O)[nH]cnc32)O1 (stereo not drawn) | 
36 | 25 | 40 | Nc1nc2c(ncn2COCCOC(=O)COCC(=O)O)c(=O)[nH]1 | 
37 | 0.123 | 8.5 | COc1ccc(/C=C\c2cc(OC)c(OC)c(OC)c2)cc1OC(=O)COCC(=O)OC(C)(C)C | 
38 | 0.0167 | 7.28 | COCCOCCOCC(=O)OCn1c(=O)[nH]cc(F)c1=O | 
39 |  |  | COCCOCCOCC(=O)OCC(=O)[C@@]12OC(C)(C)O[C@@H]1CC1C3CCC4=CC(=O)C=CC4(C)[C@@]3(F)[C@@H](O)CC12C (stereo partly drawn) | half-life (physchem): 12 h
40 | 0.045 | 16 | CC(C)(C)OC(=O)COCC(=O)OCCOCn1cnc2c(=O)[nH]c(N)nc21 | 

Row | half-life ([1]; Half-life of hydrolysis, Serum) [h] | half-life [2, 3] [h] | Structure (SMILES) | further results
41 |  |  | COCCOCC(=O)OCC(=O)[C@@]12OC(C)(C)O[C@@H]1CC1C3CCC4=CC(=O)C=CC4(C)[C@@]3(F)[C@@H](O)CC12C (stereo partly drawn) | half-life (physchem): 15 h
42 |  |  | Nc1nc2c(ncn2COCCOC(=O)COCC(=O)OCCOCn2cnc3c(=O)[nH]c(N)nc32)c(=O)[nH]1 | half-life ([1]; Half-life of hydrolysis, Serum, bis to mono): 4 h; half-life ([2]; pH 7.4, Half-life of hydrolysis, Buffer, bis to mono, phosphate buffer at ph 7.4, bis to mono): 10 h
43 | 20 | 10 | CC(C)(C)NC(=O)[C@@H]1[C@@H]2CCCC[C@@H]2CCN1C[C@@H](OC(=O)COCC(=O)OC(C)(C)C)[C@H](Cc1ccccc1)NC(=O)[C@H](CC(N)=O)NC(=O)c1ccc2ccccc2n1 | 
44 | 0.0283 | 11 | CC(C)(C)OC(=O)COCC(=O)OCC1CCC(n2ccc(N)nc2=O)O1 (stereo not drawn) | 
45 | 0.333 ± 0.0167 | 21 | Cc1cn(C2CC(N=[N+]=[N-])C(COC(=O)COCCOCCO)O2)c(=O)[nH]c1=O (stereo not drawn) | 
46 | 0.167 ± 0.0167 | 30 | Nc1ccn(C2CCC(COC(=O)COCCOCCO)O2)c(=O)n1 (stereo not drawn) | 
47 | 24 | > 48 | COCCOCC(=O)O[C@@H](C[C@H](Cc1ccccc1)NC(=O)[C@@H](NC(=O)N(C)Cc1csc(C(C)C)n1)C(C)C)[C@H](Cc1ccccc1)NC(=O)OCc1cncs1 | 
48 | 40 | > 240 | CC(C)c1nc(CN(C)C(=O)N[C@H](C(=O)N[C@@H](Cc2ccccc2)C[C@H](OC(=O)COCC(=O)O)[C@H](Cc2ccccc2)NC(=O)OCc2cncs2)C(C)C)cs1 | 
49 | 6 ± 0.5 | 3.1 ± 0.1 | CC(C)(C)NC(=O)[C@@H]1[C@@H]2CCCC[C@@H]2CCN1C[C@@H](OC(=O)COCCOCCO)[C@H](Cc1ccccc1)NC(=O)[C@H](CC(N)=O)NC(=O)c1ccc2ccccc2n1 | 
50 | 35 | 10 | CN(C)CCOC(=O)COCC(=O)O[C@H](CN1CC[C@H]2CCCC[C@H]2[C@H]1C(=O)NC(C)(C)C)[C@H](Cc1ccccc1)NC(=O)[C@H](CC(N)=O)NC(=O)c1ccc2ccccc2n1 | 
51 | 0.4033 ± 0.00333 | 12.3 ± 0.1 | COCCOCCOCC(=O)OCC1OC(n2cc(C)c(=O)[nH]c2=O)CC1N=[N+]=[N-] (stereo not drawn) | 
52 | 0.0833 | 10 | CC(C)OC(=O)COCC(=O)OCC1CCC(n2cnc3c(=O)[nH]cnc32)O1 (stereo not drawn) | 
53 | 0.075 | 24 | COCCOCCOCC(=O)OCC1CCC(n2ccc(N)nc2=O)O1 (stereo not drawn) | 
54 | 0.05 | 3.5 | CN(C)CCOCCOC(=O)COCC(=O)OCC1CCC(n2cnc3c(=O)[nH]cnc32)O1 (stereo not drawn) | 
55 | 25 | 7 | CN(C)CCOCCOC(=O)COCC(=O)O[C@H](CN1CC[C@H]2CCCC[C@H]2[C@H]1C(=O)NC(C)(C)C)[C@H](Cc1ccccc1)NC(=O)[C@H](CC(N)=O)NC(=O)c1ccc2ccccc2n1 | 
56 |  |  | CC[C@@]1(OC(=O)COCC(=O)OCCN(C)C)C(=O)OCc2c1cc1n(c2=O)Cc2cc3ccccc3nc2-1 | half-life [1]: < 0.0167 h; half-life ([2]; pH 7.4): 0.0833 h
57 | 0.06 ± 0.00167 | 13.3 ± 0.2 | COCCOCC(=O)OCC1OC(n2cc(C)c(=O)[nH]c2=O)CC1N=[N+]=[N-] (stereo not drawn) | 
58 |  |  | CC[C@@]1(OC(=O)COCC(=O)OC)C(=O)OCc2c1cc1n(c2=O)Cc2cc3ccccc3nc2-1 | half-life [1]: 0.0333 h; half-life ([2]; pH 7.4): 6.1 h
59 | 4.5 | 2.5 | COC(=O)COCC(=O)O[C@H](CN1CC[C@H]2CCCC[C@H]2[C@H]1C(=O)NC(C)(C)C)[C@H](Cc1ccccc1)NC(=O)[C@H](CC(N)=O)NC(=O)c1ccc2ccccc2n1 | 
60 | 0.0217 | 8.2 | CC(C)OC(=O)COCC(=O)OCC1CCC(n2ccc(N)nc2=O)O1 (stereo not drawn) | 
